Assay results reported in patent US20130072430A1, “METHODS FOR TREATMENT OR PROPHYLAXIS OF KIDNEY OR LIVER DYSFUNCTION” (NPS PHARMACEUTICALS, INC., priority 2010, published 2013).

Test system: Human patients with short bowel syndrome
Assay: Example 1: kidney diagnostic biomarkers (urea nitrogen, creatinine, GFR) in short bowel syndrome patients, every four weeks for 24 weeks
Type: in vivo
Design: CREATININE (RATE BLANKED) Change from Baseline, Median / GFR, Median / GFR Change from Baseline, Median / UREA NITROGEN, Median / UREA NITROGEN Change from Baseline, Median: unit not given here
Details: for CREATININE (RATE BLANKED), Median: unit assumed
Method: Human patients with short bowel syndrome were divided into three groups: a control group (16 total individuals) to receive placebo, an experimental group (35 total individuals) to receive teduglutide at 0.05 mg/kg/day throughout the study, and an experimental group (32 total individuals) to receive teduglutide at 0.1 mg/kg/day throughout the study. Patients were treated by subcutaneous injection of placebo or the appropriate dose of teduglutide. As individuals with short bowel syndrome are likely to experience associated liver and kidney disease, known biomarkers of liver and kidney function were monitored every four weeks, for 24 weeks. The liver biomarkers tested included total bilirubin, ALT and AST and ALP. The kidney biomarkers tested included urea nitrogen, creatinine and GFR. Before administration of placebo or teduglutide, diagnostic biomarker levels were tested to establish a baseline for each individual.
To visualize the effect of GLP-2 on the levels of the diagnostic biomarkers, the average change from baseline was calculated for the placebo and teduglutide treated groups for each visit after a baseline was established. The average change from baseline of each group is depicted in FIGS. […]. The numerical figures for each diaanostic biomarker at each time point are depicted in Table 1.
The raw data for this sorting is reproduced in Table 2 below.

With `CC[C@H](C)[C@H](NC(=O)[C@H](Cc1ccccc1)NC(=O)[C@H](CC(=O)O)NC(=O)[C@H](CCCNC(=N)N)NC(=O)[C@H](C)NC(=O)[C@H](C)NC(=O)[C@H](CC(C)C)NC(=O)[C@H](CC(N)=O)NC(=O)[C@H](CC(=O)O)NC(=O)[C@H](CC(C)C)NC(=O)[C@@H](NC(=O)[C@@H](NC(=O)[C@H](CC(N)=O)NC(=O)[C@H](CCSC)NC(=O)[C@H](CCC(=O)O)NC(=O)[C@H](CC(=O)O)NC(=O)[C@H](CO)NC(=O)[C@H](Cc1ccccc1)NC(=O)[C@H](CO)NC(=O)CNC(=O)[C@H](CC(=O)O)NC(=O)CNC(=O)[C@@H](N)Cc1c[nH]cn1)[C@@H](C)O)[C@@H](C)CC)C(=O)N[C@@H](CC(N)=O)C(=O)N[C@@H](Cc1c[nH]c2ccccc12)C(=O)N[C@@H](CC(C)C)C(=O)N[C@H](C(=O)N[C@@H](CCC(N)=O)C(=O)N[C@H](C(=O)N[C@@H](CCCCN)C(=O)N[C@H](C(=O)N[C@H](C(=O)N[C@@H](CC(=O)O)C(=O)O)[C@@H](C)O)[C@@H](C)CC)[C@@H](C)O)[C@@H](C)CC` [teduglutide] the “GFR Change from Baseline, Mean (SD)” value (0.05 mg/kg/day, DW24) was 3.7 (12.81), the “GFR Change from Baseline, Median” value (0.05 mg/kg/day, DW24) was 1.7 and the “GFR, Mean (SD)” value (0.05 mg/kg/day, DW24) was 89.7 (41.28). The “GFR, Median” value (0.05 mg/kg/day, DW24) was 78.1, the “UREA NITROGEN Change from Baseline, Mean (SD)” value (“UREA NITROGEN Change … (SD)” below) (0.05 mg/kg/day, DW24) was −0.6 (2.02) and the “UREA NITROGEN Change from Baseline, Median” value (“UREA NITROGEN Change … Median” for short) (0.05 mg/kg/day, DW24) was −0.7. For the same compound, the “UREA NITROGEN, Mean (SD)” value (0.05 mg/kg/day, DW24) was 5.0 (1.88), the “UREA NITROGEN, Median” value (0.05 mg/kg/day, DW24) was 4.9 and the CREATININE (RATE BLANKED), Median (0.05 mg/kg/day, DW24) was 80 µmol/L. For the same compound, the “CREATININE (RATE BLANKED) Change from Baseline, Mean (SD)” value (“CREATININE (RATE BLANKED) Change … (SD)” below) (0.10 mg/kg/day, DW4) was −1.8 (10.49), the “CREATININE (RATE BLANKED) Change from Baseline, Median” value (0.10 mg/kg/day, DW4) was −0.5 and the “CREATININE (RATE BLANKED), Mean (SD)” value (0.10 mg/kg/day, DW4) was 81.0 (21.62). For the same compound, the “GFR Change from Baseline, Mean (SD)” value (0.10 mg/kg/day, DW4) was 3.6 (11.81), the “GFR Change from Baseline, Median” value (0.10 mg/kg/day, DW4) was 3.1 and the “GFR, Mean (SD)” value (0.10 mg/kg/day, DW4) was 80.3 (25.98). For the same compound, the “GFR, Median” value (0.10 mg/kg/day, DW4) was 75.6, the “UREA NITROGEN Change … (SD)” value (0.10 mg/kg/day, DW4) was 0.3 (1.22) and the “UREA NITROGEN Change … Median” value (0.10 mg/kg/day, DW4) was 0.2. The “UREA NITROGEN, Mean (SD)” value (0.10 mg/kg/day, DW4) was 6.4 (2.19), the “UREA NITROGEN, Median” value (0.10 mg/kg/day, DW4) was 6.3 and the CREATININE (RATE BLANKED), Median (0.10 mg/kg/day, DW4) was 83 µmol/L. For the same compound, the “CREATININE (RATE BLANKED) Change … (SD)” value (0.10 mg/kg/day, DW8) was 1.2 (10.40), the “CREATININE (RATE BLANKED) Change from Baseline, Median” value (0.10 mg/kg/day, DW8) was 0.0 and the “CREATININE (RATE BLANKED), Mean (SD)” value (0.10 mg/kg/day, DW8) was 84.2 (21.41). The “GFR Change from Baseline, Mean (SD)” value (0.10 mg/kg/day, DW8) was 0.6 (10.87), the “GFR Change from Baseline, Median” value (0.10 mg/kg/day, DW8) was 0.2 and the “GFR, Mean (SD)” value (0.10 mg/kg/day, DW8) was 77.9 (25.63). The “GFR, Median” value (0.10 mg/kg/day, DW8) was 76.9, the “UREA NITROGEN Change … (SD)” value (0.10 mg/kg/day, DW8) was 0.2 (1.20) and the “UREA NITROGEN Change … Median” value (0.10 mg/kg/day, DW8) was 0.1. For the same compound, the “UREA NITROGEN, Mean (SD)” value (0.10 mg/kg/day, DW8) was 6.4 (2.00), the “UREA NITROGEN, Median” value (0.10 mg/kg/day, DW8) was 6.4 and the CREATININE (RATE BLANKED), Median (0.10 mg/kg/day, DW8) was 86 µmol/L. The “CREATININE (RATE BLANKED) Change … (SD)” value (0.10 mg/kg/day, DW12) was 2.8 (12.77), the “CREATININE (RATE BLANKED) Change from Baseline, Median” value (0.10 mg/kg/day, DW12) was 6.5 and the “CREATININE (RATE BLANKED), Mean (SD)” value (0.10 mg/kg/day, DW12) was 86.4 (25.37). For the same compound, the “GFR Change from Baseline, Mean (SD)” value (0.10 mg/kg/day, DW12) was 0.2 (15.54), the “GFR Change from Baseline, Median” value (0.10 mg/kg/day, DW12) was −0.5 and the “GFR, Mean (SD)” value (0.10 mg/kg/day, DW12) was 77.3 (25.57). For the same compound, the “GFR, Median” value (0.10 mg/kg/day, DW12) was 68.7, the “UREA NITROGEN Change … (SD)” value (0.10 mg/kg/day, DW12) was 0.1 (1.47) and the “UREA NITROGEN Change … Median” value (0.10 mg/kg/day, DW12) was 0.0. The “UREA NITROGEN, Mean (SD)” value (0.10 mg/kg/day, DW12) was 6.3 (2.08), the “UREA NITROGEN, Median” value (0.10 mg/kg/day, DW12) was 5.9 and the CREATININE (RATE BLANKED), Median (0.10 mg/kg/day, DW12) was 84.5 µmol/L. The “CREATININE (RATE BLANKED) Change … (SD)” value (0.10 mg/kg/day, DW16) was 0.6 (11.86), the “CREATININE (RATE BLANKED) Change from Baseline, Median” value (0.10 mg/kg/day, DW16) was 0.0 and the “CREATININE (RATE BLANKED), Mean (SD)” value (0.10 mg/kg/day, DW16) was 84.2 (21.85). The “GFR Change from Baseline, Mean (SD)” value (0.10 mg/kg/day, DW16) was 1.1 (13.73), the “GFR Change from Baseline, Median” value (0.10 mg/kg/day, DW16) was 1.1 and the “GFR, Mean (SD)” value (0.10 mg/kg/day, DW16) was 78.3 (23.12). For the same compound, the “GFR, Median” value (0.10 mg/kg/day, DW16) was 77.5, the “UREA NITROGEN Change … (SD)” value (0.10 mg/kg/day, DW16) was −0.2 (1.47) and the “UREA NITROGEN Change … Median” value (0.10 mg/kg/day, DW16) was 0.0. The “UREA NITROGEN, Mean (SD)” value (0.10 mg/kg/day, DW16) was 6.0 (1.86), the “UREA NITROGEN, Median” value (0.10 mg/kg/day, DW16) was 6.1 and the CREATININE (RATE BLANKED), Median (0.10 mg/kg/day, DW16) was 87.5 µmol/L. For the same compound, the “CREATININE (RATE BLANKED) Change … (SD)” value (0.10 mg/kg/day, DW20) was 2.6 (12.05), the “CREATININE (RATE BLANKED) Change from Baseline, Median” value (0.10 mg/kg/day, DW20) was 0.0 and the “CREATININE (RATE BLANKED), Mean (SD)” value (0.10 mg/kg/day, DW20) was 86.6 (20.44). For the same compound, the “GFR Change from Baseline, Mean (SD)” value (0.10 mg/kg/day, DW20) was −0.6 (16.16), the “GFR Change from Baseline, Median” value (0.10 mg/kg/day, DW20) was 1.5 and the “GFR, Mean (SD)” value (0.10 mg/kg/day, DW20) was 77.3 (26.45).
